In ChEMBL document CHEMBL1201862, “PubChem BioAssay data set” (2004):
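Each compound was tested at five concentrations against cells in 96-well plates for 48 hours. GI50 is the concentration that inhibits growth by half.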 Active and inactive are the calls of the source. No stated cut-off is given here; in the data, active = GI50 up to about 1.1 µM and inactive = higher.

Tests used:
Assay in all cases: NCI tumour cell line growth inhibition, 48 h
NCI-H226 = tested on: NCI-H226
SW-620 = tested on: SW-620
IGROV-1 = tested on: IGROV-1
OVCAR-5 = tested on: OVCAR-5
UACC-257 = tested on: UACC-257
A498 = tested on: A498
U-251 = tested on: U-251
NCI-H522 = tested on: NCI-H522
DU-145 = tested on: DU-145
SK-MEL-28 = tested on: SK-MEL-28
MOLT-4 = tested on: MOLT-4
RXF 393 = tested on: RXF 393
786-0 = tested on: 786-0
SK-MEL-5 = tested on: SK-MEL-5
UO-31 = tested on: UO-31
MDA-N = tested on: MDA-N
SK-MEL-2 = tested on: SK-MEL-2
MDA-MB-231 = tested on: MDA-MB-231
SK-OV-3 = tested on: SK-OV-3
Malme-3M = tested on: Malme-3M

Compound	GI50 (NCI-H226)	GI50 (SW-620)	GI50 (IGROV-1)	GI50 (OVCAR-5)	GI50 (UACC-257)	GI50 (A498)	GI50 (U-251)	GI50 (NCI-H522)	GI50 (DU-145)	GI50 (SK-MEL-28)	GI50 (MOLT-4)	GI50 (RXF 393)	GI50 (786-0)	GI50 (SK-MEL-5)	GI50 (UO-31)	GI50 (MDA-N)	GI50 (SK-MEL-2)	GI50 (MDA-MB-231)	GI50 (SK-OV-3)	GI50 (Malme-3M)
CCOc1cc2c(cc1O)CC[C@@H]1[C@@H]2CC[C@]2(C)[C@@H](O)CC[C@@H]12	0.423 µM (active)	0.0183 µM (active)	1.18 µM (inactive)	10.8 µM (inactive)	< 0.01 µM (active)	2.09 µM (inactive)	0.0803 µM (active)	< 0.0117 µM (active)	0.0547 µM (active)	0.443 µM (active)	0.0401 µM (active)	0.0387 µM (active)	0.0301 µM (active)	0.0188 µM (active)	0.256 µM (active)	0.0107 µM (active)	0.118 µM (active)	0.188 µM (active)	0.138 µM (active)	
O=C(O)c1nnsc1COCc1ccccc1		> 100 µM (inactive)	> 100 µM (inactive)	> 100 µM (inactive)	> 100 µM (inactive)	> 100 µM (inactive)	> 100 µM (inactive)	> 100 µM (inactive)	> 100 µM (inactive)	> 100 µM (inactive)	> 100 µM (inactive)	> 100 µM (inactive)	> 100 µM (inactive)	> 100 µM (inactive)	> 100 µM (inactive)	> 100 µM (inactive)	> 100 µM (inactive)	> 100 µM (inactive)	> 100 µM (inactive)	> 100 µM (inactive)
CC(C)=CC(=O)C[C@H]1C(=O)O[C@@H]2C[C@H]3C(C)=CC(=O)[C@@H](O)[C@]3(C)[C@H]3[C@@]4(O)OC[C@]32[C@@H]1[C@@H](C)[C@H]4O	< 0.01 µM (active)	0.0281 µM (active)	< 0.01 µM (active)	0.0711 µM (active)	0.0185 µM (active)	0.236 µM (active)	< 0.01 µM (active)		0.0177 µM (active)	< 0.0114 µM (active)	< 0.01 µM (active)		0.0266 µM (active)	< 0.01 µM (active)	0.0605 µM (active)	< 0.0189 µM (active)	0.0311 µM (active)	0.0454 µM (active)	0.187 µM (active)	< 0.01 µM (active)
COc1ccc(-c2coc3c4c(ccc3c2=O)OCO4)cc1OC	76.7 µM (inactive)	> 100 µM (inactive)	44.4 µM (inactive)	> 100 µM (inactive)	> 100 µM (inactive)	> 100 µM (inactive)	37.2 µM (inactive)	56.9 µM (inactive)	> 100 µM (inactive)	> 100 µM (inactive)	> 100 µM (inactive)		35.4 µM (inactive)	55.5 µM (inactive)	99.8 µM (inactive)	5.79 µM (inactive)	65.3 µM (inactive)	45.4 µM (inactive)	24.4 µM (inactive)	
CCOC(=O)N1CCC2(CC1)C[C@@](C(C)=O)(c1ccccc1)C(C)O2 (some centres undefined)	> 100 µM (inactive)	> 100 µM (inactive)	> 100 µM (inactive)	> 100 µM (inactive)	> 100 µM (inactive)	> 100 µM (inactive)	> 100 µM (inactive)	> 100 µM (inactive)	> 100 µM (inactive)	> 100 µM (inactive)	> 100 µM (inactive)		> 100 µM (inactive)	> 100 µM (inactive)	> 100 µM (inactive)	85.1 µM (inactive)	> 100 µM (inactive)	> 100 µM (inactive)	57.4 µM (inactive)	> 100 µM (inactive)
Cc1cc2c(C)cc(=O)[nH]c2cc1N	> 100 µM (inactive)	> 100 µM (inactive)	> 100 µM (inactive)	> 100 µM (inactive)	> 100 µM (inactive)	> 100 µM (inactive)	72.9 µM (inactive)		> 100 µM (inactive)	> 100 µM (inactive)	> 100 µM (inactive)	> 100 µM (inactive)	> 100 µM (inactive)	> 100 µM (inactive)	> 100 µM (inactive)	> 100 µM (inactive)		46.9 µM (inactive)		
CC1(C)N[PH]2(Nc3ccccc3O2)OC1=O	35.9 µM (inactive)	42.7 µM (inactive)	> 100 µM (inactive)	> 100 µM (inactive)	> 100 µM (inactive)	> 100 µM (inactive)	70.1 µM (inactive)		> 100 µM (inactive)	86.9 µM (inactive)	22.8 µM (inactive)	> 100 µM (inactive)	> 100 µM (inactive)	24.3 µM (inactive)	96.4 µM (inactive)	19.2 µM (inactive)		> 100 µM (inactive)	> 100 µM (inactive)	38.4 µM (inactive)
C=C(Cl)C(Cl)(CCl)CCC(Br)C(C)(C)Br (centres undefined)	> 10 µM (inactive)	> 10 µM (inactive)	> 10 µM (inactive)	> 10 µM (inactive)		> 10 µM (inactive)	> 10 µM (inactive)	> 10 µM (inactive)	> 10 µM (inactive)	> 10 µM (inactive)	> 10 µM (inactive)	> 10 µM (inactive)	> 10 µM (inactive)	> 10 µM (inactive)	> 10 µM (inactive)	> 10 µM (inactive)	> 10 µM (inactive)	> 10 µM (inactive)	> 10 µM (inactive)	
O=C(/C=C/c1ccc2ccccc2c1)NCc1ccc(C(=O)NCCc2ccccc2)cc1	43.5 µM (inactive)	> 100 µM (inactive)		> 100 µM (inactive)	> 100 µM (inactive)	> 100 µM (inactive)	> 100 µM (inactive)		> 100 µM (inactive)	> 100 µM (inactive)	> 100 µM (inactive)	> 100 µM (inactive)	64.3 µM (inactive)	> 100 µM (inactive)	> 100 µM (inactive)	> 100 µM (inactive)	> 100 µM (inactive)	> 100 µM (inactive)	> 100 µM (inactive)	
COC(=O)c1c(C(=O)OC)c2c3ccccc3n(C)c2c2c1c1ccccc1n2C	> 100 µM (inactive)	> 100 µM (inactive)	16.9 µM (inactive)	61.1 µM (inactive)	> 100 µM (inactive)	95.1 µM (inactive)	28.1 µM (inactive)	58.1 µM (inactive)	> 100 µM (inactive)	> 100 µM (inactive)	> 100 µM (inactive)		34.2 µM (inactive)	74.5 µM (inactive)	16.2 µM (inactive)	> 100 µM (inactive)	46.8 µM (inactive)	17.1 µM (inactive)	50.2 µM (inactive)	89.9 µM (inactive)
COC(=O)CC(C#N)(OP1(=O)OC(c2ccccc2)C(C)N1C)c1ccccc1 (centres undefined)		17.3 µM (inactive)	34.4 µM (inactive)	27.4 µM (inactive)	20.6 µM (inactive)	44.6 µM (inactive)	23.1 µM (inactive)	59 µM (inactive)	32.4 µM (inactive)	31.1 µM (inactive)	25.5 µM (inactive)	20.6 µM (inactive)	24 µM (inactive)	64.3 µM (inactive)	12.1 µM (inactive)	26.8 µM (inactive)	27.2 µM (inactive)	42.4 µM (inactive)	40.5 µM (inactive)	41.8 µM (inactive)
CN(C)c1n/c(=N/Cc2ccccn2)ss1	> 10 µM (inactive)	> 6.4 µM (inactive)	> 10 µM (inactive)	7.38 µM (inactive)	> 10 µM (inactive)	> 10 µM (inactive)	> 10 µM (inactive)		> 10 µM (inactive)	> 10 µM (inactive)	1.78 µM (inactive)	> 8.79 µM (inactive)	> 4.16 µM (inactive)	> 10 µM (inactive)	> 10 µM (inactive)	> 10 µM (inactive)		> 10 µM (inactive)	> 10 µM (inactive)	> 4.61 µM (inactive)
O=c1ccn(C2OC(CO)C(O)C2[Se]c2ccccc2)c(=O)[nH]1 (centres undefined)	> 100 µM (inactive)	> 100 µM (inactive)	> 100 µM (inactive)	> 100 µM (inactive)	2.77 µM (inactive)	> 100 µM (inactive)	> 100 µM (inactive)	99.1 µM (inactive)	> 100 µM (inactive)	> 100 µM (inactive)	> 100 µM (inactive)		> 100 µM (inactive)	> 100 µM (inactive)	> 100 µM (inactive)	> 100 µM (inactive)	> 100 µM (inactive)	> 100 µM (inactive)	> 100 µM (inactive)	> 100 µM (inactive)
O=CN(O)CC(=O)O	> 100 µM (inactive)	> 100 µM (inactive)	> 100 µM (inactive)	> 100 µM (inactive)	> 100 µM (inactive)	> 100 µM (inactive)	> 100 µM (inactive)		> 100 µM (inactive)	> 100 µM (inactive)	> 100 µM (inactive)	> 100 µM (inactive)	> 100 µM (inactive)	> 100 µM (inactive)	> 100 µM (inactive)	> 100 µM (inactive)	> 100 µM (inactive)	> 100 µM (inactive)	> 100 µM (inactive)	> 100 µM (inactive)
CN(C)Cc1cc(C(=O)/C=C/c2ccccc2)cc(CN(C)C)c1O	27.9 µM (inactive)	18.2 µM (inactive)	31.9 µM (inactive)	87.5 µM (inactive)	13.3 µM (inactive)	21.8 µM (inactive)	35.3 µM (inactive)	19.5 µM (inactive)	33 µM (inactive)	20.6 µM (inactive)	16.8 µM (inactive)	16.5 µM (inactive)	30.1 µM (inactive)	16.6 µM (inactive)	17.5 µM (inactive)	13.3 µM (inactive)		21.9 µM (inactive)		22.6 µM (inactive)
